From ChEMBL document CHEMBL4011590, “Structure-activity relationship studies on 3,5-dinitrophenyl tetrazoles as antitubercular agents” (Eur J Med Chem, 2017)
Converted amounts (≈) assume the structure as drawn.

Tests used:
Mycobacterium kansasii [1] = test: Antimycobacterial activity against Mycobacterium kansasii CNCTC My 235/80 after 14 days by micromethod; assay type: functional; conditions: CNCTC My 235/80, 336 h
Mycobacterium avium [2] = test: Antimycobacterial activity against Mycobacterium avium CNCTC My 330/80 after 21 days by micromethod; assay type: functional; conditions: CNCTC My 330/80, 504 h
Mycobacterium kansasii [3] = test: Antimycobacterial activity against Mycobacterium kansasii isolate 6509/96 after 21 days by micromethod; assay type: functional; conditions: isolate 6509/96, 504 h
Mycobacterium kansasii [4] = test: Antimycobacterial activity against Mycobacterium kansasii isolate 6509/96 after 7 days by micromethod; assay type: functional; conditions: isolate 6509/96, 168 h
CHO-K1 = test: Cytotoxicity against CHOK1 cells after 24 hrs by MTT assay; assay type: cell-based; conditions: Cricetulus griseus, CHO-K1, 24 h
Mycobacterium kansasii [5] = test: Antimycobacterial activity against Mycobacterium kansasii isolate 6509/96 after 14 days by micromethod; assay type: functional; conditions: isolate 6509/96, 336 h
Mycobacterium kansasii [6] = test: Antimycobacterial activity against Mycobacterium kansasii CNCTC My 235/80 after 7 days by micromethod; assay type: functional; conditions: CNCTC My 235/80, 168 h
[7] = system: Mycobacterium tuberculosis; test: Antimycobacterial activity against Mycobacterium tuberculosis H37Rv CNCTC My 331/88 after 21 days by micromethod; assay type: functional; conditions: H37Rv CNCTC My 331/88, 504 h
[8] = system: Mycobacterium tuberculosis; test: Antimycobacterial activity against Mycobacterium tuberculosis H37Rv CNCTC My 331/88 after 14 days by micromethod; assay type: functional; conditions: H37Rv CNCTC My 331/88, 336 h
Mycobacterium avium [9] = test: Antimycobacterial activity against Mycobacterium avium CNCTC My 330/80 after 14 days by micromethod; assay type: functional; conditions: CNCTC My 330/80, 336 h
Mycobacterium kansasii [10] = test: Antimycobacterial activity against Mycobacterium kansasii CNCTC My 235/80 after 21 days by micromethod; assay type: functional; conditions: CNCTC My 235/80, 504 h

Compound	MIC99 (Mycobacterium kansasii [1])	MIC99 (Mycobacterium avium [2])	MIC99 (Mycobacterium kansasii [3])	MIC99 (Mycobacterium kansasii [4])	IC50 (CHO-K1)	MIC99 (Mycobacterium kansasii [5])	MIC99 (Mycobacterium kansasii [6])	MIC99 [7]	MIC99 [8]	MIC99 (Mycobacterium avium [9])	MIC99 (Mycobacterium kansasii [10])
O=[N+]([O-])c1cc(-c2nnn(CSc3nnnn3C3CCCCC3)n2)cc([N+](=O)[O-])c1	0.06 µM (≈ 0.0259 µg/mL)	16 µM (≈ 6.92 µg/mL)	0.03 µM (≈ 0.013 µg/mL)	0.03 µM (≈ 0.013 µg/mL)	140 µM	0.03 µM (≈ 0.013 µg/mL)	0.06 µM (≈ 0.0259 µg/mL)	0.03 µM (≈ 0.013 µg/mL)	0.03 µM (≈ 0.013 µg/mL)	8 µM (≈ 3.46 µg/mL)	0.06 µM (≈ 0.0259 µg/mL)
O=[N+]([O-])c1cc(-c2nnn(Cc3ccc(F)c(F)c3)n2)cc([N+](=O)[O-])c1	2 µM (≈ 0.725 µg/mL)	8 µM (≈ 2.9 µg/mL)	2 µM (≈ 0.725 µg/mL)	1 µM (≈ 0.362 µg/mL)	–	2 µM (≈ 0.725 µg/mL)	1 µM (≈ 0.362 µg/mL)	0.5 µM (≈ 0.181 µg/mL)	0.25 µM (≈ 0.0906 µg/mL)	4 µM (≈ 1.45 µg/mL)	4 µM (≈ 1.45 µg/mL)
O=[N+]([O-])c1cc(-c2nnn(Cc3cccc(F)c3)n2)cc([N+](=O)[O-])c1	2 µM (≈ 0.689 µg/mL)	16 µM (≈ 5.51 µg/mL)	2 µM (≈ 0.689 µg/mL)	0.5 µM (≈ 0.172 µg/mL)	315 µM	1 µM (≈ 0.344 µg/mL)	1 µM (≈ 0.344 µg/mL)	1 µM (≈ 0.344 µg/mL)	1 µM (≈ 0.344 µg/mL)	8 µM (≈ 2.75 µg/mL)	2 µM (≈ 0.689 µg/mL)
CO[C@H]1/C=C/O[C@@]2(C)Oc3c(C)c(O)c4c(O)c(c(/C=N/N5CCN(C)CC5)c(O)c4c3C2=O)NC(=O)/C(C)=C\C=C\[C@H](C)[C@H](O)[C@@H](C)[C@@H](O)[C@@H](C)[C@H](OC(C)=O)[C@@H]1C [RIFAMPIN]	0.25 µM (≈ 0.206 µg/mL)	–	–	–	–	0.125 µM (≈ 0.103 µg/mL)	–	–	0.25 µM (≈ 0.206 µg/mL)	32 µM (≈ 26.3 µg/mL)	–
COc1ccc(-n2nnnc2SCn2nnc(-c3cc([N+](=O)[O-])cc([N+](=O)[O-])c3)n2)cc1	1 µM (≈ 0.456 µg/mL)	1 µM (≈ 0.456 µg/mL)	1 µM (≈ 0.456 µg/mL)	0.25 µM (≈ 0.114 µg/mL)	–	0.5 µM (≈ 0.228 µg/mL)	0.5 µM (≈ 0.228 µg/mL)	0.5 µM (≈ 0.228 µg/mL)	0.25 µM (≈ 0.114 µg/mL)	1 µM (≈ 0.456 µg/mL)	2 µM (≈ 0.913 µg/mL)
O=[N+]([O-])c1cc(-c2nnn(CCCSc3nnnn3-c3ccc(Br)cc3)n2)cc([N+](=O)[O-])c1	1 µM (≈ 0.533 µg/mL)	2 µM (≈ 1.07 µg/mL)	1 µM (≈ 0.533 µg/mL)	0.5 µM (≈ 0.267 µg/mL)	–	1 µM (≈ 0.533 µg/mL)	0.5 µM (≈ 0.267 µg/mL)	0.5 µM (≈ 0.267 µg/mL)	0.5 µM (≈ 0.267 µg/mL)	1 µM (≈ 0.533 µg/mL)	2 µM (≈ 1.07 µg/mL)
O=[N+]([O-])c1cc(Sc2nnnn2C2CCCCC2)cc([N+](=O)[O-])c1	1 µM (≈ 0.35 µg/mL)	32 µM (≈ 11.2 µg/mL)	1 µM (≈ 0.35 µg/mL)	1 µM (≈ 0.35 µg/mL)	153 µM	1 µM (≈ 0.35 µg/mL)	1 µM (≈ 0.35 µg/mL)	1 µM (≈ 0.35 µg/mL)	1 µM (≈ 0.35 µg/mL)	32 µM (≈ 11.2 µg/mL)	1 µM (≈ 0.35 µg/mL)
